Read-outs that look alike come from different tables or passages of the source.
Assays:
[1] = target: T1, recombinant human CK2 (Homo sapiens, UniProt P68400); experiment: CK2 assay (cell-free, 33P-ATP filter plate); assay type: biochemical
T1 construct: purchased Upstate
Experimental: Modulatory activity of compounds described herein was assessed in vitro in cell-free CK2 assays by the following method.
Test compounds in aqueous solution were added at a volume of 10 microliters, to a reaction mixture comprising 10 microliters Assay Dilution Buffer (ADB; 20 mM MOPS, pH 7.2, 25 mM beta-glycerolphosphate, 5 mM EGTA, 1 mM sodium orthovanadate and 1 mM dithiothreitol), 10 microliters of substrate peptide (RRRDDDSDDD, dissolved in ADB at a concentration of 1 mM), 10 microliters of recombinant human CK2 (25 ng dissolved in ADB; Upstate). Reactions were initiated by the addition of 10 microliters of ATP Solution (90% 75 mM MgCl2, 75 micromolar ATP dissolved in ADB; 10% [γ-^33P]ATP (stock 1 mCi/100 μl; 3000 Ci/mmol (Perkin Elmer) and maintained for 10 minutes at 30 degrees C. The reactions were quenched with 100 microliters of 0.75% phosphoric acid, then transferred to and filtered through a phosphocellulose filter plate (Millipore). After washing each well 5 times with 0.75% phosphoric acid, the plate was dried under vacuum for 5 min and, following the addition of 15 ul of scintillation fluid to each well, the residual radioactivity was measured using a Wallac luminescence counter.

[2] = target: recombinant PIM-1 (Homo sapiens, UniProt P11309); experiment: PIM-1 assay (33P-ATP filter plate); assay type: biochemical; details: read-out: PIM1: IC50
recombinant PIM-1, sequence (P11309 whole entry): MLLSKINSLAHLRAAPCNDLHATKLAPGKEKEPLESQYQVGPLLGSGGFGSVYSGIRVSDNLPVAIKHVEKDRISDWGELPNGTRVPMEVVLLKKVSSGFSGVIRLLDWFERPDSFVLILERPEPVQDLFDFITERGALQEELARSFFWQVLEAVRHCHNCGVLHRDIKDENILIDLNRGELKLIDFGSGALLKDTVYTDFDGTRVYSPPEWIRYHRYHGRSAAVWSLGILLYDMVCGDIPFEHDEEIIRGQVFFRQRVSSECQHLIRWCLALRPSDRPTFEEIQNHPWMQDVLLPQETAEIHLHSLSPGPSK
Experimental: The following procedure was used to assay the PIM-1 kinase activity of compounds of the invention. Other methods for assaying PIM-1 and other PIM kinases, as well as methods to assay for activity against the various kinases are known in the art.
In a final reaction volume of 50 ul, recombinant PIM-1 (1 ng) was incubated with 12 mM MOPS pH 7.0, 0.4 mM EDTA, glycerol 1%, brij 35 0.002%, 2-mercaptoethanol 0.02%, BSA 0.2 mg/ml, 100 uM KKRNRTLTK, 10 mM MgAcetate, 15 uM ATP, [γ-^33P-ATP] (specific activity approx. 500 cpm/pmol), DMSO 4% and test inhibitor compound at the required concentration. The reaction was initiated by the addition of the Magnesium ATP mixture. After 40 min incubation at 23° C., the reactions were quenched by the addition of 100 ul 0.75% Phosphoric acid, and the labeled peptide collected by filtration through a phosphocellulose filter plate. The plate was washed 4 times with 0.075% phosphoric acid (100 ul per well) and then, after the addition of scintillation fluid (20 ul per well), the counts were measured by a scintillation counter.

[3] = tested on: K-562; experiment: Alamar Blue cell proliferation assay, K-562; assay type: cell-based; details: Homo sapiens
Experimental: (§1) A representative cell-proliferation assay protocol using Alamar Blue dye (stored at 4° C., use 20 ul per well) is described hereafter.
(§2) a. Split and trypsinize cells.
(§3) b. Count cells using hemocytometer.
(§4) c. Plate 4,000-5,000 cells per well in 100 μl of medium and seed into a 96-well plate according to the following plate layout. Add cell culture medium only to wells B10 to B12. Wells B1 to B9 have cells but no compound added.
(§5) d. Add 100 μl of 2× drug dilution to each well in a concentration shown in the plate layout above. At the same time, add 100 μl of media into the control wells (wells B10 to B12). Total volume is 200 μl/well.
(§6) e. Incubate four (4) days at 37° C., 5% CO2 in a humidified incubator.
(§7) f. Add 20 μl Alamar Blue reagent to each well.
(§8) g. Incubate for four (4) hours at 37° C., 5% CO2 in a humidified incubator.
(§9) h. Record fluorescence at an excitation wavelength of 544 nm and emission wavelength of 590 nm using a microplate reader.
(§10) In the assays, cells are cultured with a test compound for approximately four days, the dye is then added to the cells and fluorescence of […] dye is detected after approximately four hours. Different types of cells can be utilized in the assays (e.g., HCT-116 human colorectal carcinoma cells, PC-3 human prostatic cancer cells and MiaPaca human pancreatic carcinoma cells).

[4] = tested on: PC-3 human prostatic cancer cells; experiment: Alamar Blue cell proliferation assay, PC3; assay type: cell-based
Experimental: as §1, §2, §3, §4, §5, §6, §7, §8, §9, §10

[5] = tested on: MV-4-11; experiment: Alamar Blue cell proliferation assay, MV-4-11; assay type: cell-based; details: Homo sapiens, MV4-11, MV-4-11, Table 1, read-out: AB: MV-4-11 IC50
Experimental: as §1, §2, §3, §4, §5, §6, §7, §8, §9, §10

[6] = tested on: MDAMB231; experiment: Alamar Blue cell proliferation assay, MDAMB231; assay type: cell-based; details: Homo sapiens, MDA-MB-231, MDAMB231, Table 1, read-out: AB: MDAMB231 IC50
Experimental: as §1, §2, §3, §4, §5, §6, §7, §8, §9, §10

[7] = tested on: MiaPaca human pancreatic carcinoma cells; experiment: Alamar Blue cell proliferation assay, MiaPaCa; assay type: cell-based; details: MIA PaCa-2, Table 1, read-out: AB: MiaPaCa IC50
Experimental: as §1, §2, §3, §4, §5, §6, §7, §8, §9, §10

[8] = K562, K-562, Table 4, read-out: AB: K-562 IC50
[9] = PC3, Table 4, read-out: AB: PC3 IC50
[10] = K562, K-562, Table 1, read-out: AB: K-562 IC50
[11] = PC-3, PC3, Table 1, read-out: AB: PC3

T1 sequence (P68400 whole entry): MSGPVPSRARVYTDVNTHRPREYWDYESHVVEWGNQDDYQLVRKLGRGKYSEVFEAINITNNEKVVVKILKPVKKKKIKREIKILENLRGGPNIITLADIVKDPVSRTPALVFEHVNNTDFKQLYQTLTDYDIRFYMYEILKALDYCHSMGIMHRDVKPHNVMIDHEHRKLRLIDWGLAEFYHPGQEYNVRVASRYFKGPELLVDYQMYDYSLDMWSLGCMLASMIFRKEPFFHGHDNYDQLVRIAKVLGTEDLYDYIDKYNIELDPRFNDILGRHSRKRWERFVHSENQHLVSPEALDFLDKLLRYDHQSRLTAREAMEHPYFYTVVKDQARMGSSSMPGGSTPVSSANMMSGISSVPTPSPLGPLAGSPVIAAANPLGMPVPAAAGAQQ
T1 sequence (P67870 whole entry partner): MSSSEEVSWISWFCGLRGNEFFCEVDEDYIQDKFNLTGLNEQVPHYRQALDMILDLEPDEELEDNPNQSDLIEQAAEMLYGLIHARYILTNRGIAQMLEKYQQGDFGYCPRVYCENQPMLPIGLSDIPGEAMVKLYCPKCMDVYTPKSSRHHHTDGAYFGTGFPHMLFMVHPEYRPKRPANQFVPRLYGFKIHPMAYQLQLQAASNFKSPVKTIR

IC50 ([1]; Table 1) [nM]	IC50 ([2]; Table 1) [nM]	IC50 [3, 10] [nM]	IC50 [6] [nM]	IC50 [4, 11] [nM]	IC50 [7] [nM]	also measured	Compound
–	–	–	–	–	–	IC50 ([1]; Table 4): 3 nM; IC50 ([2]; Table 4): 1 nM; IC50 [3, 8]: 76 nM; IC50 [4, 9]: 9490 nM	CN1CCCN(c2cncc(-c3cccc(/C=C4\SC(=O)NC4=O)c3)n2)CC1
3	< 1	64	> 10000	> 10000	–	IC50 [5]: < 30 nM	CCN(CC)CCNC(=O)c1ccc(Cl)c(-c2ccc(/C=C3\SC(=S)NC3=O)o2)c1
107	226	> 10000	> 10000	–	> 10000	IC50 [5]: > 10000 nM	O=C1NC(=S)S/C1=C\c1ccc(-c2ccc(Cl)c(C(=O)O)c2)o1
281	47	> 10000	> 10000	> 30000	> 10000	–	O=C1NC(=S)S/C1=C\c1ccc(-c2cccc(C(=O)Nn3cnnc3)c2)o1
–	–	–	–	–	–	IC50 ([1]; Table 2): 117 nM; IC50 ([2]; Table 2): > 5000 nM	O=C1NC(=O)/C(=C/c2ccc(-c3cccc(C(=O)O)c3)o2)S1
–	–	–	–	–	–	IC50 ([1]; Table 2): 35 nM; IC50 ([2]; Table 2): 51 nM; IC50 ([4]; PC3, Table 2, read-out: AB: PC3 IC50): > 10000 nM	NS(=O)(=O)c1ccc(-c2ccc(/C=C3\SC(=O)NC3=O)o2)cc1
54	42	> 10000	> 10000	> 10000	> 10000	–	COCCNC(=O)c1cc(-c2ccc(/C=C3\SC(=S)NC3=O)o2)ccc1Cl
3790	4330	–	–	–	–	–	O=C1NC(=S)S/C1=C\c1ccc(-c2ccccc2C(=O)O)o1
9	15	–	–	> 10000	–	–	NS(=O)(=O)c1ccc(-c2ccc(/C=C3\SC(=S)NC3=O)o2)cc1
–	–	–	–	–	–	IC50 ([1]; Table 3): 1460 nM; IC50 ([2]; Table 3): > 5000 nM	CN1C(=O)NC(=O)/C1=C\c1ccc(-c2cccc(C(=O)O)c2)o1
–	–	–	–	–	–	IC50 ([1]; Table 3): 458 nM; IC50 ([2]; Table 3): 276 nM	NS(=O)(=O)c1ccc(-c2ccc(/C=C3\NC(=O)NC3=O)o2)cc1
–	–	–	–	–	–	IC50 ([1]; Table 4): 18 nM; IC50 ([2]; Table 4): 141 nM; IC50 [4, 9]: > 10000 nM	CN1CCCN(c2cncc(-c3ccc(/C=C4\SC(=S)NC4=O)o3)n2)CC1
> 5000	1300	–	–	–	–	–	CN1CCCN(C(=O)c2ccccc2-c2ccc(/C=C3\SC(=S)NC3=O)o2)CC1
–	–	–	–	–	–	IC50 ([1]; Table 3): > 5000 nM; IC50 ([2]; Table 3): > 5000 nM	CN1CCCN(C(=O)c2cccc(-c3ccc(/C=C4/NC(=O)NC4=O)o3)c2)CC1
–	67	> 10000	> 10000	> 30000	> 10000	IC50 [5]: > 10000 nM	CC(C)N1CCN(C(=O)c2ccc(-c3ccc(/C=C4\SC(=S)NC4=O)o3)cc2)CC1
–	64	> 10000	> 10000	> 30000	> 10000	IC50 [5]: > 10000 nM	CN1CCN(C(=O)c2ccc(-c3ccc(/C=C4\SC(=S)NC4=O)o3)cc2)CC1
10	3	7620	> 10000	> 10000	> 10000	–	COCCNC(=O)c1ccc(Cl)c(-c2ccc(/C=C3\SC(=S)NC3=O)o2)c1
–	25	> 10000	> 10000	> 30000	> 10000	IC50 [5]: > 10000 nM	CN1CCCN(C(=O)c2ccc(-c3ccc(/C=C4\SC(=S)NC4=O)o3)cc2)CC1
–	–	–	–	–	–	IC50 ([1]; Table 4): 229 nM; IC50 ([2]; Table 4): 1850 nM	CN1CCCN(c2cncc(-c3ccc(/C=C4\NC(=O)NC4=O)o3)n2)CC1
3	6	> 10000	> 10000	–	> 10000	IC50 [5]: > 10000 nM	COC(=O)c1cccc(-c2ccc(CC3SC(=S)NC3=O)o2)c1 (stereo not shown)
–	28	> 10000	> 10000	> 30000	3950	IC50 [5]: 210 nM	CCN1CCCC1CNC(=O)c1ccc(-c2ccc(/C=C3\SC(=S)NC3=O)o2)cc1 (stereo not shown)
10	2	> 10000	> 10000	> 10000	> 10000	–	CCN(CC)CCNC(=O)c1cc(-c2ccc(/C=C3\SC(=S)NC3=O)o2)ccc1Cl
–	–	–	–	–	–	IC50 ([1]; Table 4): 1 nM; IC50 ([2]; Table 4): < 1 nM; IC50 [3, 8]: < 30 nM; IC50 [4, 9]: 3460 nM	CN1CCCN(c2cncc(-c3cccc(/C=C4\SC(=S)NC4=O)c3)n2)CC1
–	–	–	–	–	–	IC50 ([1]; Table 3): 216 nM; IC50 ([2]; Table 3): 829 nM	CN1C(=O)NC(=O)/C1=C\c1ccc(-c2ccc(C(=O)O)cc2)o1
–	–	–	–	–	–	IC50 ([1]; Table 3): 1820 nM; IC50 ([2]; Table 3): > 5000 nM	CN1CCCN(C(=O)c2cccc(-c3ccc(/C=C4\C(=O)NC(=O)N4C)o3)c2)CC1
–	–	–	–	–	–	IC50 ([1]; Table 4): 6 nM; IC50 ([2]; Table 4): 22 nM; IC50 [3, 8]: 146 nM; IC50 [4, 9]: > 10000 nM	CN1CCCN(c2cncc(-c3ccc(/C=C4\SC(=O)NC4=O)o3)n2)CC1
–	–	–	–	–	–	IC50 ([1]; Table 3): 166 nM; IC50 ([2]; Table 3): 805 nM	O=C1NC(=O)/C(=C\c2ccc(-c3ccc(C(=O)O)cc3)o2)N1
–	–	–	–	–	–	IC50 ([1]; Table 3): 2060 nM; IC50 ([2]; Table 3): > 5000 nM	O=C1NC(=O)/C(=C\c2ccc(-c3cccc(C(=O)O)c3)o2)N1
–	37	> 10000	> 10000	> 30000	> 10000	IC50 [5]: > 10000 nM	CN1CCC(N(C)C(=O)c2ccc(-c3ccc(/C=C4\SC(=S)NC4=O)o3)cc2)C1 (stereo not shown)
